According to US6569449B1, “Transdermal delivery of opioid antagonist prodrugs” (University of Kentucky Research Foundation, priority 2000, dated 2003):
Converted amounts (≈) assume the structure as drawn. Read-outs that look alike come from different tables or passages of the source.

Key:
[1] = Octanol/water partition coefficients; type: physicochemical; details: octanol/pH 7.4 isotonic phosphate buffer, room temperature; read-out: Experimental log P
Method: The octanol/water partition coefficients were determined using pH 7.4 isotonic phosphate buffer as the aqueous phase. All steps were carried out at room temperature. An appropriate amount of drug was weighed into a vial and dissolved in a known amount of octanol. An equivalent amount of buffer was then added to the vial and the phases shaken for 24 hours. The vials were left undisturbed for at least one hour after shaking. An exact volume was taken from the aqueous phase, diluted with acetonitrile, and then analyzed by HPLC. The final pH of the aqueous phase at the end of the shaking period was 7.95. Similarly, an exact volume was taken from the octanol phase, diluted with acetonitrile, and then analyzed by HPLC. Partition coefficients were calculated by determining the phase concentration ratios.

[2] = Solubilities in light mineral oil and pH 7.4 isotonic phosphate buffer; type: physicochemical; details: thermodynamic from solid, 32° C., 48 hours equilibration
Method: The solubilities of naltrexone and its esters were obtained by equilibrating large excesses of each substance with the respective vehicle, light mineral oil, or pH 7.4 isotonic phosphate buffer at 32° C. To hasten the attainment of equilibrium, each slurry was continuously shaken in a sealed container in a shaking incubation oven. Samples were taken, filtered (mineral oil:Millex FG-13, Millipore and buffer:glass microfiber, Gelman) above 32° C., measured with respect to volume, and diluted with the appropriate amount of acetonitrile. The diluted samples were analyzed by HPLC. The initial forty percent of each filtrate was discarded to eliminate the possibility that adsorption of drug on the filter and/or the filtering apparatus might influence the solubility determination. The sampling procedure was repeated at least once for each sample. […] Therefore, the equilibration times for all the studies were 48 hours.

O=C1CC[C@@]2(O)[C@H]3Cc4ccc(O)c5c4[C@@]2(CCN3CC2CC2)[C@H]1O5 [NTX, Naltrexone]
logP at 24 h [1]: 0.67
solubility at 48 h ([2]; aqueous buffer, pH 7.4 isotonic phosphate buffer, read-out: Phosphate Buffer Solubility pH 7.4 32° C.): 15.2 mM (≈ 5190 µg/mL)
solubility at 48 h ([2]; oil or lipid, light mineral oil, read-out: Light Mineral Oil Solubility 32° C.): 0.258 mM (≈ 88.1 µg/mL)
